Results published in the NIST ThermoML archive (doi:10.1016/j.jct.2018.04.003).
± gives the expanded uncertainty stated by the source.

Experiment: mn = molality of the nth substance listed, in mol/kg
Settings: 101.3 kPa, Liquid; for speed of sound: Frequency=2 MHz, Linear variable-path acoustic interferometer; for mass density: Pycnometric method

NNC(=O)c1ccncc1 [isonicotinic acid hydrazide] + O
Settings	mass density [kg/m3]	speed of sound [m/s]
288.15 K, m1 = 0.0099	999.49 ± 0.55	1466.6 ± 1.8
288.15 K, m1 = 0.02	999.88 ± 0.55	1467.3 ± 1.8
288.15 K, m1 = 0.03	1000.26 ± 0.55	1468 ± 1.8
288.15 K, m1 = 0.0401	1000.64 ± 0.55	1468.7 ± 1.8
288.15 K, m1 = 0.0495	1001 ± 0.55	1469.4 ± 1.8
288.15 K, m1 = 0.055	1001.19 ± 0.55	1469.8 ± 1.8
288.15 K, m1 = 0.06	1001.38 ± 0.55	1470.1 ± 1.8
288.15 K, m1 = 0.065	1001.55 ± 0.55	1470.5 ± 1.8
288.15 K, m1 = 0.0708	1001.77 ± 0.55	1470.9 ± 1.8
288.15 K, m1 = 0.075	1001.92 ± 0.55	1471.2 ± 1.8
288.15 K, m1 = 0.0809	1002.12 ± 0.55	1471.6 ± 1.8
288.15 K, m1 = 0.0846	1002.25 ± 0.55	1471.9 ± 1.8
288.15 K, m1 = 0.0901	1002.45 ± 0.55	1472.3 ± 1.8
288.15 K, m1 = 0.0949	1002.62 ± 0.55	1472.6 ± 1.8
288.15 K, m1 = 0.1002	1002.81 ± 0.55	1473 ± 1.8
298.15 K, m1 = 0.0099	997.39 ± 0.55	1497.4 ± 1.8
298.15 K, m1 = 0.0197	997.69 ± 0.55	1498.1 ± 1.8
298.15 K, m1 = 0.0299	998.02 ± 0.55	1498.8 ± 1.8
298.15 K, m1 = 0.04	998.35 ± 0.55	1499.6 ± 1.8
298.15 K, m1 = 0.0499	998.67 ± 0.55	1500.3 ± 1.8
298.15 K, m1 = 0.055	998.83 ± 0.55	1500.6 ± 1.8
298.15 K, m1 = 0.0599	998.99 ± 0.55	1500.9 ± 1.8
298.15 K, m1 = 0.0649	999.15 ± 0.55	1501.3 ± 1.8
298.15 K, m1 = 0.0699	999.31 ± 0.55	1501.6 ± 1.8
298.15 K, m1 = 0.075	999.47 ± 0.55	1502 ± 1.8
298.15 K, m1 = 0.0797	999.61 ± 0.55	1502.3 ± 1.8
298.15 K, m1 = 0.085	999.78 ± 0.55	1502.7 ± 1.8
298.15 K, m1 = 0.0897	999.92 ± 0.55	1503 ± 1.8
298.15 K, m1 = 0.0949	1000.09 ± 0.55	1503.4 ± 1.8
298.15 K, m1 = 0.1006	1000.26 ± 0.55	1503.8 ± 1.9
308.15 K, m1 = 0.0099	994.3 ± 0.56	1520.5 ± 1.8
308.15 K, m1 = 0.0199	994.58 ± 0.56	1521.3 ± 1.8
308.15 K, m1 = 0.0301	994.85 ± 0.56	1522 ± 1.8
308.15 K, m1 = 0.04	995.12 ± 0.56	1522.7 ± 1.8
308.15 K, m1 = 0.0501	995.39 ± 0.56	1523.5 ± 1.8
308.15 K, m1 = 0.055	995.52 ± 0.56	1523.9 ± 1.8
308.15 K, m1 = 0.06	995.64 ± 0.56	1524.2 ± 1.8
308.15 K, m1 = 0.0649	995.76 ± 0.56	1524.6 ± 1.8
308.15 K, m1 = 0.0699	995.9 ± 0.56	1525 ± 1.8
308.15 K, m1 = 0.0751	996.03 ± 0.56	1525.3 ± 1.8
308.15 K, m1 = 0.0799	996.15 ± 0.56	1525.7 ± 1.8
308.15 K, m1 = 0.0851	996.28 ± 0.56	1526.1 ± 1.8
308.15 K, m1 = 0.09	996.41 ± 0.56	1526.4 ± 1.8
308.15 K, m1 = 0.095	996.53 ± 0.56	1526.8 ± 1.8
308.15 K, m1 = 0.1002	996.67 ± 0.56	1527.2 ± 1.8

[Cl-].[K+] [potassium chloride] + O
Settings	mass density, 288.15 K [kg/m3]	mass density, 298.15 K [kg/m3]	mass density, 308.15 K [kg/m3]	speed of sound, 288.15 K [m/s]	speed of sound, 298.15 K [m/s]	speed of sound, 308.15 K [m/s]
m1 = 0.06	1002.26 ± 0.55	1000.42 ± 0.55	997.25 ± 0.56	1467.4 ± 1.8	1498.3 ± 1.8	1522.2 ± 1.8
m1 = 0.1	1003.48 ± 0.55	1001.79 ± 0.55	998.71 ± 0.56	1469.6 ± 1.8	1502.5 ± 1.8	1525.1 ± 1.8
